Source: patent US20050049299A1, “Selective inhibitors of stat-3 activation and uses thereof” (priority 2003, published 2005)

Experiments:
Assay type in all cases: cell-based, human
[1] = test system: STAT3 phosphorylation; assay: IL-6-inducible STAT3 phosphorylation in RPMI 8226 cells (Western blot)
Method: FIGS. 3A-C show& that IL-6 induces STAT3 phosphorylation in human multiple myeloma RPMI 8226 cells and curcumin inhibits it. […] U266, RPMI 8226, MM.1S, MM.1R and OCl cells (2×10^6) were lysed, and 30 μg of whole-cell extracts were resolved on 7.5% SDS-PAGE, electrotransferred to a nitrocellulose membrane, and probed for phosphorylated-STAT3 (upper panel) and STAT3 (lower panel). […] Thirty micrograms of whole cell extracts were resolved on 7.5% SDS-PAGE, electrotransferred to a nitrocellulose membrane, and probed for the phosphorylated-STAT3 (upper panel) and stripped and reprobed for STAT3 (middle panel) and β-actin (lower panel).
(§1) For detection of STAT proteins, whole-cell extracts were prepared by lysing the curcumin-treated cells in lysis buffer (20 mM Tris, pH 7.4, 250 mM NaCl, 2 mM EDTA, pH 8.0, 0.1% Triton-X100, 0.01 mg/ml aprotinin, 0.005 mg/ml leupeptin, 0.4 mM PMSF, and 4 mM NaVO4). Lysates were then spun at 14000 rpm for 10 min to remove insoluble material, and resolved on a 7.5% gel. After electrophoresis, the proteins were electrotransferred to a nitrocellulose membrane, blocked with 5% nonfat milk, and probed with anti-STAT antibodies (1:1000) overnight at 4° C. The blot was washed, exposed to HRP-conjugated secondary antibodies for 1 h, and finally examined by chemiluminescence (ECL, Amersham Pharmacia Biotech. Arlington Heights, Ill.).
Since IL-6 is a growth factor for multiple myeloma and induces STAT3 phosphorylation (5, 6, 15), whether curcumin could inhibit IL-6-induced STAT3 phosphorylation was examined. […] IL-6 induced phosphorylation of STAT3 as early as 5 min and began to decline at 60 minutes (FIG. 3B). RPMI 8226 cells were then incubated with curcumin for different times and examined for IL-6-inducible STAT3 phosphorylation.
Exposure of cells to curcumin for 4 hours was sufficient to completely suppress IL-6-induced STAT3 phosphorylation. Curcumin alone had no effect on STAT3 phosphorylation in these cells (data not shown).

[2] = test system: MDA 1986LN cells; assay: Proliferation of MDA 1986LN cells (MTT assay)
Method: MDA 1986LN cells (2×10^6 cells) were treated with indicated concentrations of AG490 for 8 h and whole extracts prepared. These whole-cell extracts (30 μg) were resolved on 7.5% SDS-PAGE, electrotransferred to a nitrocellulose membrane, probed for p-STAT3 (upper panel), striped and reprobed for STAT3 (middle panel) and β-actin (lower panel). […] The cells were treated with AG490 (100 μM) for the indicated durations and whole cell extracts prepared and analyzed as mentioned earlier. FIG. 15C compares the effect of curcumin and AG490 on proliferation of MDA 1986LN cells by MTT assay.
Further, the proliferation of MDA 1986LN cells when treated with curcumin was compared with AG490 treated cells by performing MTT assay.

[3] = test system: STAT3 phosphorylation; assay: Constitutive STAT3 phosphorylation in U266 cells (Western blot)
Method: (§2) U266 cells (2×10^6) were treated with the indicated concentrations of curcumin for 1 h, or treated with 50 μM curcumin for the indicated durations and levels of phosphorylated-STAT3 (upper panel) and STAT3 (lower panel) were examined in whole cell extracts by Western Blotting. […] U266 cells (2×10^6) were treated with 50 μM curcumin for indicated durations, and examined for phosphorylated and nonphosphorylated-STAT3, and STAT5. […] U266 cells (2×10^6) were preincubated with curcumin (50 μM) for indicated durations before treatment with IFN-α (10 ng/ml) for additional 30 min and then examined for phosphorylated and nonphosphorylated-STAT1.
U266 cells (2×10^6 cells) were treated with 50 μM curcumin for the indicated durations (left panels) or treated for 1 h and washed with PBS two times to remove curcumin before resuspending in fresh medium. Cells were removed at indicated times and lysed to prepare the whole cell extract (right panels). Thirty micrograms of whole cell extracts were resolved on 7.5% SDS-PAGE, electrotransferred to a nitrocellulose membrane, probed for the phosphorylated-STAT3 (upper panels) and stripped and reprobed for STAT3 (middle panels) and β-actin (lower panels).
Thirty micrograms of whole-cell extract was resolved on 7.5% SDS-PAGE, electrotransferred to a nitrocellulose membrane, probed for the phospho-STAT3 (upper panel), stripped, and reprobed for STAT3 (middle panel) and β-actin (lower panel).
as §1
Whether curcumin inhibits the constitutive STAT3 phosphorylation in U266 was investigated. U266 cells were incubated either with different concentrations of curcumin for 1 h or with 50 μM curcumin for different times. Curcumin inhibited the constitutively active STAT3 in a dose-(FIG. 1A) and time-(FIG. 1B) dependent manner. Curcumin-induced inhibition could be observed as early as 10 min and with a concentration as low as 10 μM.
Whether curcumin-induced inhibition of STAT3 phosphorylation was reversible was further examined. U266 cells were first treated for 60 min with curcumin, and then the cells were washed twice with PBS to remove curcumin. The cells were then cultured in the fresh medium for various durations, and the levels of phosphorylated STAT3 were measured.
In comparison, treatment of cells with 50 μM curcumin for 60 minutes was sufficient to inhibit STAT3 phosphorylation (see FIGS. 1A and 1B).

[4] = test system: STAT5 phosphorylation; assay: Constitutive STAT5 phosphorylation in U266 cells (Western blot); details: 50 μM, conditions of complete STAT3 phosphorylation inhibition
Method: as §2
as §1, with “Ill.). […]” for “Ill.).”

COc1cc(/C=C/C(=O)CC(=O)/C=C/c2ccc(O)c(OC)c2)ccc1O [curcumin, diferuloylmethane]
exposure sufficient to completely suppress IL-6-induced STAT3 phosphorylation ([1]; 50 μM curcumin, IL-6 10 ng/ml 10 min): 4 h
effect of curcumin alone on STAT3 phosphorylation ([1]; without IL-6 (data not shown)): no effect
inhibition of proliferation of MDA 1986LN cells compared with AG490 [2]: more efficiently that AG490
dose needed to suppress STAT3 phosphorylation (comparison AG490 vs curcumin) [3]: 10 µM
earliest time at which inhibition of constitutive STAT3 phosphorylation could be observed ([3]; U266 cells, 50 μM curcumin): 10 min
treatment time sufficient to inhibit STAT3 phosphorylation ([3]; U266 cells, 50 μM curcumin): 60 min
inhibition of constitutive STAT3 phosphorylation ([3]; U266 cells, 50 μM, 1 h): completely inhibited
lowest concentration at which inhibition of constitutive STAT3 phosphorylation could be observed ([3]; U266 cells, 1 h): 10 µM
time to complete reversal of STAT3 phosphorylation inhibition after removal of curcumin ([3]; U266 cells, 60 min treatment then washed): ≤ 24 h
overall expression of STAT3 protein ([3]; U266 cells, curcumin treatment): did not alter the overall expression of STAT3 protein
exposure needed to suppress STAT3 phosphorylation (comparison AG490 vs curcumin) ([3]; curcumin): 30 min
levels of constitutively phosphorylated STAT5 [4]: neither altered the levels of constitutively phosphorylated STAT5
